These molecules were tested against unphosphorylated-BTK kinase domain (UP-BTK), GST-tagged human BTK (389-659aa) (Homo sapiens (Human), UniProt Q06187) (assay: BTK Kinase Lanthascreen Binding Assay). Settings: compound, 50 nM Tracer 236, 2 nM anti-GST antibody, 60 minutes; pIC50 = negative log of the IC50 in molar.
Protocol: BTK Kinase Lanthascreen Binding Assay:
A BTK kinase lanthascreen binding assay monitors compound binding to unphosphorylated-BTK kinase domain (UP-BTK), by competing with a fluorescent labeled tracer. […] Data were analyzed using Xlfit™ version 5.3 from ID Business Solutions (Guildford), Microsoft Excel add-in. pIC50 refers to the negative log of the IC50 in molar.

Sequence of unphosphorylated-BTK kinase domain (UP-BTK), GST-tagged human BTK (389-659aa) (Q06187 389-659): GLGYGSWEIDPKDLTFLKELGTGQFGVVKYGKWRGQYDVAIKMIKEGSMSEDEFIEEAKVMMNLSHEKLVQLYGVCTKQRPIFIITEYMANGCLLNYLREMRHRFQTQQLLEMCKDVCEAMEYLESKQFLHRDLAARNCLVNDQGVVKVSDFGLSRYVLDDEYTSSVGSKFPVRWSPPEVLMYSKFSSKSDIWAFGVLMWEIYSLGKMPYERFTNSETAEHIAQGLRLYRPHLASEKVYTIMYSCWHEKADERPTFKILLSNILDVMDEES

BTK_I_binding pIC50 | Compound
7.03 | Cc1cc(Oc2ccccc2)ccc1N1C(=O)Nc2c(C(=O)NC3CCCC3)sc3nccc1c23 [Example 81, N-Cyclopentyl-5-(*S)-(2-methyl-4-phenoxyphenyl)-4-oxo-4,5-dihydro-3H-1-thia-3,5,8-triazaacenaphthylene-2-carboxamide]
5.35 | Cc1cc(Oc2ccccc2)ccc1N1C(=O)Nc2c(C(=O)NC3CCCC3)sc3nccc1c23 [Example 82, N-Cyclopentyl-5-(*R)-(2-methyl-4-phenoxyphenyl)-4-oxo-4,5-dihydro-3H-1-thia-3,5,8-triazaacenaphthylene-2-carboxamide]
7.31 | N[C@@H]1CCC[C@H]1NC(=O)c1sc2nccc3c2c1NC(=O)N3c1ccc(Oc2ccccc2)cc1 [Example 91, N-((1R,2R)-2-Aminocyclopentyl)-4-oxo-5-(4-phenoxyphenyl)-4,5-dihydro-3H-1-thia-3,5,8-triazaacenaphthylene-2-carboxamide]
7.70 | N[C@H]1CCC[C@H]1NC(=O)c1sc2nccc3c2c1NC(=O)N3c1ccc(Oc2ccccc2)cc1 [Example 97, N-((1R,2S)-2-Aminocyclopentyl)-4-oxo-5-(4-phenoxyphenyl)-4,5-dihydro-3H-1-thia-3,5,8-triazaacenaphthylene-2-carboxamide]
6.10 | N[C@@H]1CCC[C@@H]1NC(=O)c1sc2nccc3c2c1NC(=O)N3c1ccc(Oc2ccccc2)cc1 [Example 98, N-((1S,2R)-2-Aminocyclopentyl)-4-oxo-5-(4-phenoxyphenyl)-4,5-dihydro-3H-1-thia-3,5,8-triazaacenaphthylene-2-carboxamide]
7.03 | Cc1cc(Oc2ccccc2)ccc1N1C(=O)Nc2c(C(=O)N[C@H]3CC[C@@H](N(C)C)CC3)sc3nccc1c23 [Example 99, N-((1S,4S)-4-(Dimethylamino)cyclohexyl)-5-(*S)-(2-methyl-4-phenoxyphenyl)-4-oxo-4,5-dihydro-3H-1-thia-3,5,8-triazaacenaphthylene-2-carboxamide]
5.86 | Cc1cc(Oc2ccccc2)ccc1N1C(=O)Nc2c(C(=O)N[C@H]3CC[C@@H](N(C)C)CC3)sc3nccc1c23 [Example 100, N-((1S,4S)-4-(Dimethylamino)cyclohexyl)-5-(*R)-(2-methyl-4-phenoxyphenyl)-4-oxo-4,5-dihydro-3H-1-thia-3,5,8-triazaacenaphthylene-2-carboxamide]
8.37 | C=CC(=O)N[C@H]1CCC[C@H]1NC(=O)c1sc2nccc3c2c1NC(=O)N3c1ccc(Oc2ccccc2)cc1 [Example 104, N-((1R,2S)-2-acrylamidocyclopentyl)-4-oxo-5-(4-phenoxyphenyl)-4,5-dihydro-3H-1-thia-3,5,8-triazaacenaphthylene-2-carboxamide]
8.06 | C=CC(=O)N[C@H]1CCCC[C@H]1NC(=O)c1sc2nccc3c2c1NC(=O)N3c1cccc(-c2ccccc2)c1 [Example 106, 5-([1,1′-Biphenyl]-3-yl)-N-((1R,2S)-2-acrylamidocyclohexyl)-4-oxo-4,5-dihydro-3H-1-thia-3,5,8-triazaacenaphthylene-2-carboxamide]
7.23 | C=CC(=O)N[C@@H]1CC[C@H](NC(=O)c2sc3nccc4c3c2NC(=O)N4c2ccc(OC(C)C)cc2C)C1 [Example 110, N-((1S,3R)-3-Acrylamidocyclopentyl)-5-(4-isopropoxy-2-methylphenyl)-4-oxo-4,5-dihydro-3H-1-thia-3,5,8-triazaacenaphthylene-2-carboxamide]
8.12 | C=CC(=O)N[C@H]1CCCC[C@H]1NC(=O)c1sc2nccc3c2c1NC(=O)N3c1ccc(Oc2ccccc2)cc1 [Example 118, N-((1R,2S)-2-Acrylamidocyclohexyl)-4-oxo-5-(4-phenoxyphenyl)-4,5-dihydro-3H-1-thia-3,5,8-triazaacenaphthylene-2-carboxamide]
7.61 | C=CC(=O)N[C@H]1CC[C@@H](NC(=O)c2sc3nccc4c3c2NC(=O)N4c2ccc(Oc3ccccc3)cc2)CC1 [Example 119, N-((1S,4S)-4-Acrylamidocyclohexyl)-4-oxo-5-(4-phenoxyphenyl)-4,5-dihydro-3H-1-thia-3,5,8-triazaacenaphthylene-2-carboxamide]
6.57 | C=CC(=O)N[C@H]1CC[C@@H](NC(=O)c2sc3nccc4c3c2NC(=O)N4c2ccc(Oc3ccccc3)cc2)C1 [Example 121, N-((1R,3S)-3-Acrylamidocyclopentyl)-4-oxo-5-(4-phenoxyphenyl)-4,5-dihydro-3H-1-thia-3,5,8-triazaacenaphthylene-2-carboxamide]
6.71 | C=CC(=O)N[C@@H]1CCCC[C@@H]1NC(=O)c1sc2nccc3c2c1NC(=O)N3c1ccc(Oc2ccccc2)cc1 [Example 124, N-((1S,2R)-2-Acrylamidocyclohexyl)-4-oxo-5-(4-phenoxyphenyl)-4,5-dihydro-3H-1-thia-3,5,8-triazaacenaphthylene-2-carboxamide]
7.13 | N[C@H]1CCCC[C@H]1NC(=O)c1sc2nccc3c2c1NC(=O)N3c1ccc(Oc2ccccc2)cc1 [Example 126, N-((1R,2S)-2-Aminocyclohexyl)-4-oxo-5-(4-phenoxyphenyl)-4,5-dihydro-3H-1-thia-3,5,8-triazaacenaphthylene-2-carboxamide]
6.56 | C=CC(=O)N[C@@H]1CCC[C@@H]1NC(=O)c1sc2nccc3c2c1NC(=O)N3c1ccc(Oc2ccccc2)cc1 [Example 127, N-((1S,2R)-2-Acrylamidocyclopentyl)-4-oxo-5-(4-phenoxyphenyl)-4,5-dihydro-3H-1-thia-3,5,8-triazaacenaphthylene-2-carboxamide]
7.49 | N[C@H]1CCCC[C@H]1NC(=O)c1sc2nccc3c2c1NC(=O)N3c1ccc(Oc2ccccc2)c(Cl)c1 [Example 137, N-((1R,2S)-2-Aminocyclohexyl)-5-(3-chloro-4-phenoxyphenyl)-4-oxo-4,5-dihydro-3H-1-thia-3,5,8-triazaacenaphthylene-2-carboxamide]
7.23 | O=C(N[C@@H]1CCC[C@@H](O)C1)c1sc2nccc3c2c1NC(=O)N3c1ccc(Oc2ccccc2)cc1 [Example 139, N-((1R,3R)-3-Hydroxycyclohexyl)-4-oxo-5-(4-phenoxyphenyl)-4,5-dihydro-3H-1-thia-3,5,8-triazaacenaphthylene-2-carboxamide]
7.15 | O=C(N[C@@H]1CCC[C@@H]1O)c1sc2nccc3c2c1NC(=O)N3c1ccc(Oc2ccccc2)cc1 [Example 140, N-((1R,2S)-2-Hydroxycyclopentyl)-4-oxo-5-(4-phenoxyphenyl)-4,5-dihydro-3H-1-thia-3,5,8-triazaacenaphthylene-2-carboxamide]

Same assay, conditions: read-out: BTK_I_binding pIC50 (converted)

Compound | IC50 [nM]
Cc1cc(Oc2ccccc2)ccc1N1C(=O)Nc2c(C(=O)N[C@H]3CC[C@H](O)CC3)sc3nccc1c23 [Example 86, N-((1R,4R)-4-Hydroxycyclohexyl)-5-(*R)-(2-methyl-4-phenoxyphenyl)-4-oxo-4,5-dihydro-3H-1-thia-3,5,8-triazaacenaphthylene-2-carboxamide] | 229
C=CC(=O)N[C@@H]1CC[C@H](NC(=O)c2sc3nccc4c3c2NC(=O)N4c2ccc(Oc3ccccc3)cc2)C1 [Example 117, N-((1S,3R)-3-Acrylamidocyclopentyl)-4-oxo-5-(4-phenoxyphenyl)-4,5-dihydro-3H-1-thia-3,5,8-triazaacenaphthylene-2-carboxamide] | 15.8

— patent publication US10934310B2, “Inhibitors of Bruton's tyrosine kinase and method of their use” (JANSSEN PHARMACEUTICA NV, priority 2015, dated 2021)
